Data published in the NIST ThermoML archive (doi:10.1021/acs.jced.8b00524).
± gives the expanded uncertainty stated by the source.

What was measured:
[1] = 100 kPa, Liquid; for viscosity: Concentric cylinders viscometry; for mass density: Vibrating tube method
[2] = xn = mol fraction of the nth substance listed; details: 100 kPa, Liquid; for viscosity: Concentric cylinders viscometry; for mass density: Vibrating tube method

CCCCOC(C)=O [butyl ethanoate]
[1]
Details	mass density [kg/m3]	viscosity [mPa·s]
293.15 K	881.1 ± 10	0.732 ± 0.037
298.15 K	876 ± 10	0.677 ± 0.034
303.15 K	870.9 ± 10	0.628 ± 0.032
308.15 K	865.7 ± 10	0.585 ± 0.03
313.15 K	860.5 ± 10	0.546 ± 0.028
318.15 K	855.3 ± 10	0.512 ± 0.026
323.15 K	850.1 ± 10	0.485 ± 0.025

CCCCOC(C)=O [butyl ethanoate] + CCCCCCCCCCO
[2], x1 = 1
Details	mass density [kg/m3]	viscosity [mPa·s]
293.15 K	881.1 ± 10	0.732 ± 0.037
298.15 K	876 ± 10	0.677 ± 0.034
303.15 K	870.9 ± 10	0.628 ± 0.032
308.15 K	865.7 ± 10	0.585 ± 0.03
313.15 K	860.5 ± 10	0.546 ± 0.028
318.15 K	855.3 ± 10	0.512 ± 0.026
323.15 K	850.1 ± 10	0.485 ± 0.025

CCCCOC(C)=O [butyl ethanoate] + CCCCCCCCCO
[2], x1 = 1
Details	mass density [kg/m3]	viscosity [mPa·s]
293.15 K	881.1 ± 10	0.732 ± 0.037
298.15 K	876 ± 10	0.677 ± 0.034
303.15 K	870.9 ± 10	0.628 ± 0.032
308.15 K	865.7 ± 10	0.585 ± 0.03
313.15 K	860.5 ± 10	0.546 ± 0.028
318.15 K	855.3 ± 10	0.512 ± 0.026
323.15 K	850.1 ± 10	0.485 ± 0.025

CCCCOC(C)=O [butyl ethanoate] + CCCCCCCO
[2], x1 = 1
Details	mass density [kg/m3]	viscosity [mPa·s]
293.15 K	881.1 ± 10	0.732 ± 0.037
298.15 K	876 ± 10	0.677 ± 0.034
303.15 K	870.9 ± 10	0.628 ± 0.032
308.15 K	865.7 ± 10	0.585 ± 0.03
313.15 K	860.5 ± 10	0.546 ± 0.028
318.15 K	855.3 ± 10	0.512 ± 0.026
323.15 K	850.1 ± 10	0.485 ± 0.025

CCCCCCCCCCO [decan-1-ol]
[1]
Details	mass density [kg/m3]	viscosity [mPa·s]
293.15 K	829.5 ± 10	14.42 ± 0.72
298.15 K	826.1 ± 10	11.8 ± 0.59
303.15 K	822.7 ± 10	9.76 ± 0.49
308.15 K	819.3 ± 10	8.14 ± 0.41
313.15 K	815.8 ± 10	6.84 ± 0.34
318.15 K	812.4 ± 10	5.8 ± 0.29
323.15 K	808.9 ± 10	4.96 ± 0.25

CCCCCCCO [heptan-1-ol]
[1]
Details	mass density [kg/m3]	viscosity [mPa·s]
293.15 K	822.2 ± 10	7.03 ± 0.35
298.15 K	818.7 ± 10	5.92 ± 0.3
303.15 K	815.2 ± 10	5.03 ± 0.25
308.15 K	811.6 ± 10	4.3 ± 0.22
313.15 K	808 ± 10	3.71 ± 0.19
318.15 K	804.4 ± 10	3.21 ± 0.16
323.15 K	800.7 ± 10	2.79 ± 0.14

CCCCCCO [hexan-1-ol]
[1]
Details	mass density [kg/m3]	viscosity [mPa·s]
293.15 K	818.7 ± 10	5.37 ± 0.27
298.15 K	815.1 ± 10	4.58 ± 0.23
303.15 K	811.5 ± 10	3.94 ± 0.2
308.15 K	807.9 ± 10	3.4 ± 0.17
313.15 K	804.2 ± 10	2.95 ± 0.15
318.15 K	800.6 ± 10	2.58 ± 0.13
323.15 K	796.8 ± 10	2.26 ± 0.11

CCCCCCO [hexan-1-ol] + CCCCOC(C)=O
[2], x2 = 0
Details	mass density [kg/m3]	viscosity [mPa·s]
293.15 K	818.7 ± 10	5.37 ± 0.27
298.15 K	815.1 ± 10	4.58 ± 0.23
303.15 K	811.5 ± 10	3.94 ± 0.2
308.15 K	807.9 ± 10	3.4 ± 0.17
313.15 K	804.2 ± 10	2.95 ± 0.15
318.15 K	800.6 ± 10	2.58 ± 0.13
323.15 K	796.8 ± 10	2.26 ± 0.11

CCCCCCCCCO [nonan-1-ol]
[1]
Details	mass density [kg/m3]	viscosity [mPa·s]
293.15 K	827.5 ± 10	11.41 ± 0.57
298.15 K	824 ± 10	9.43 ± 0.47
303.15 K	820.5 ± 10	7.86 ± 0.39
308.15 K	817.1 ± 10	6.61 ± 0.33
313.15 K	813.6 ± 10	5.59 ± 0.28
318.15 K	810.1 ± 10	4.78 ± 0.24
323.15 K	806.5 ± 10	4.1 ± 0.21

CCCCCCCCO [octan-1-ol]
[1]
Details	mass density [kg/m3]	viscosity [mPa·s]
293.15 K	824.9 ± 10	9.13 ± 0.46
298.15 K	821.4 ± 10	7.62 ± 0.38
303.15 K	817.9 ± 10	6.41 ± 0.32
308.15 K	814.4 ± 10	5.43 ± 0.27
313.15 K	810.9 ± 10	4.63 ± 0.23
318.15 K	807.3 ± 10	3.98 ± 0.2
323.15 K	803.7 ± 10	3.44 ± 0.17

CCCCCCCCO [octan-1-ol] + CCCCOC(C)=O
[2], x2 = 0
Details	mass density [kg/m3]	viscosity [mPa·s]
293.15 K	824.9 ± 10	9.13 ± 0.46
298.15 K	821.4 ± 10	7.62 ± 0.38
303.15 K	817.9 ± 10	6.41 ± 0.32
308.15 K	814.4 ± 10	5.43 ± 0.27
313.15 K	810.9 ± 10	4.63 ± 0.23
318.15 K	807.3 ± 10	3.98 ± 0.2
323.15 K	803.7 ± 10	3.44 ± 0.17
